Literature values as cited in patent US20040157925A1, “Stable pharmaceutical composition of pravastatin” (priority 2001, published 2004).

Settings: pH 3 or less as found in the stomach; degrades to lactone and 3-a-hydroxy-isopravastatin

- Stability in a low pH environment: very unstable
Compound: CC[C@H](C)C(=O)O[C@H]1C[C@H](O)C=C2C=C[C@H](C)[C@H](CC[C@@H](O)C[C@@H](O)CC(=O)O)[C@H]21 [Pravastatin sodium, (+)-(3R, 5R)-3,5-dihydroxy-7-[(1 S,2S,6S, 8S, 8aR)-6-hydroxy-2-methyl-8-[(S)-2-methylbutyryloxy]-1,2,6,7,8,8a-hexahydro-1-naphthyl]heptanoate]
